Data on five compounds can be found in US7850948B2, “Radiohalogenated benzamide derivatives and their use in tumor diagnosis and tumor therapy” (Bayer Schering Pharma AG, priority 2004, dated 2010).

Data set [1] concerns B16/F1 tumor-bearing C57BL6 mice. The data set is described as follows: Tissue concentration of radioiodinated benzamides in the C57BL6-B16/F1 mouse model (organ distribution and tumor accumulation). The format is in vivo. The conditions noted are these: for Blood tissue concentration / Liver tissue concentration / Tumor tissue concentration: n = 3. Here is the method:
(§1) After synthesis and purification, the compounds according to the invention are dissolved in a physiologically compatible medium and kept ready for injection. Organ distribution and tumor accumulation experiments were performed in B16/F1 tumor-bearing C57BL6 mice, and SK-Mel-3 tumor-bearing NMRI nude mice (15-22 g).
(§2) Murine B16/F1 and human SK-Mel-3 cells were ordered from ATCC. B16/F1 cells (0.5×10^6) are washed in buffer (preferably phosphate buffer), suspended and inoculated subcutaneously into C57BL6 mice, 100 μl, in the right rear flanks. Sk-Mel-3 cells (5×10^6) are washed in buffer and then inoculated subcutaneously into NMRI mice in Matrigel® (100 μl) in the right side of the trunk. After about 8-10 days, the animals develop palpable tumors with a surface area of about 30 mm^2. The distribution studies are performed after intravenous caudal vein administration of 3.7-5.5 MBq of the substances according to the invention in 50-100 μl of volume. At certain times after administration, the animals are sacrificed, organs and tumors are removed, optionally dabbed dry, weighed and measured for radioactive content (γ measurement) in a calibrator with the corresponding isotope standard. The results are depicted as % of the injected dose (ID)/g of tissue (Table 1).

The test system of another data set is thyroid gland. The data set is described as follows: Thyroid gland accumulation as indication of dehalogenation in vivo. The text has this: Another drawback of the most similar compounds of the prior art is that the compounds of Eisenhut et al. dehalogenate more quickly in the body than the compounds according to the invention.
The thyroid gland accumulation of BA40 and BA42, an indication of dehalogenation in vivo, is increased by a factor of 10-15 compared to the compounds according to the invention.

The subject of data set [2] is SK-Mel-3 tumor-bearing NMRI nude mice. In words: Tumor accumulation in the NMRI-SK-Me13 human xenograft mouse model. Particulars: after 96 hours. The data set is classed as in vivo. How it is done: as §1, §2
The next data set can be described thus: Lipophilicity. The data set is classed as physicochemical. The conditions noted are these: in words.
The mark [3] stands for this setting: 1 hour after intravenous administration.
Setting [4] is: 6 h after intravenous administration.
[5] abbreviates: 24 hours after intravenous administration.
The mark [6] stands for this setting: 5 hours after intravenous administration.

Turning to `CCN(CC)CCNC(=O)c1cc(I)c(NC(=O)c2ccc(F)cc2)cc1OC` [BA100], in data set [1] (setting [3]), the Blood tissue concentration is reported as 1.21 % Injected Dose (ID)/g of Tissue, the Liver tissue concentration was 15.49 % Injected Dose (ID)/g of Tissue and the Tumor tissue concentration was 25.51 % Injected Dose (ID)/g of Tissue. In data set [1] (setting [4]), the Blood tissue concentration was 0.70 % Injected Dose (ID)/g of Tissue, the Liver tissue concentration is 4.64 % Injected Dose (ID)/g of Tissue and the Tumor tissue concentration is 28.10 % Injected Dose (ID)/g of Tissue. Besides, in data set [1] (setting [5]), the Blood tissue concentration was 0.07 % Injected Dose (ID)/g of Tissue, the Liver tissue concentration was 0.76 % Injected Dose (ID)/g of Tissue and the Tumor tissue concentration is on record as 31.66 % Injected Dose (ID)/g of Tissue. The “Liver concentration compared with BA42” value in data set [1] (after 6 and 24 hours, in words) is “considerably lower”. For the same compound, in data set [1] (in words), the “Blood accumulation compared with the closest prior art (compound of Eisenhut et al. with NH-Ac)” value is “considerably less” and the “Retardation in the melanoma tissue” value is “extended retardation”. The “Stability of the bonded radioisotope I-131 (dehalogenation in vivo)” value (“Stability … (dehalogenation in vivo)” for short) in the data set on thyroid gland is listed as “more stable”.

For `CCN(CC)CCNC(=O)c1cc(I)c(NC(=O)c2ccc(Cl)cc2)cc1OC` [BA93], in data set [1] (setting [3]), the Blood tissue concentration is on record as 1.30 % Injected Dose (ID)/g of Tissue, the Liver tissue concentration is recorded as 13.71 % Injected Dose (ID)/g of Tissue and the Tumor tissue concentration was 10.73 % Injected Dose (ID)/g of Tissue. Further, in data set [1] (setting [4]), the Blood tissue concentration was 0.82 % Injected Dose (ID)/g of Tissue, the Liver tissue concentration is reported as 5.81 % Injected Dose (ID)/g of Tissue and the Tumor tissue concentration is 21.67 % Injected Dose (ID)/g of Tissue. Further, in data set [1] (setting [5]), the Blood tissue concentration was 0.22 % Injected Dose (ID)/g of Tissue, the Liver tissue concentration is listed as 1.18 % Injected Dose (ID)/g of Tissue and the Tumor tissue concentration is reported as 23.46 % Injected Dose (ID)/g of Tissue. The “Liver concentration compared with BA42” value in data set [1] (after 6 and 24 hours, in words) is “considerably lower”. Moreover, in data set [1] (in words), the “Blood accumulation compared with the closest prior art (compound of Eisenhut et al. with NH-Ac)” value is “considerably less” and the “Retardation in the melanoma tissue” value was “extended retardation”. For the same compound, the “Stability … (dehalogenation in vivo)” value in the data set on thyroid gland is recorded as “more stable”.

With `CCN(CC)CCNC(=O)c1cc(I)c(NC(=O)c2ccc3c(c2)OCO3)cc1OC` [BA52, Benzo[1,3]dioxole-5-carboxylic acid [4-(2-diethylamino-ethylcarbamoyl)-2-iodo-5-methoxy-phenyl]-amide], in data set [1] (setting [3]), the Blood tissue concentration is given as 1.46 % Injected Dose (ID)/g of Tissue, the Liver tissue concentration is on record as 19.11 % Injected Dose (ID)/g of Tissue and the Tumor tissue concentration is 14.83 % Injected Dose (ID)/g of Tissue. In data set [1] (setting [6]), the Blood tissue concentration is 0.69 % Injected Dose (ID)/g of Tissue, the Liver tissue concentration is 6.53 % Injected Dose (ID)/g of Tissue and the Tumor tissue concentration is recorded as 22.69 % Injected Dose (ID)/g of Tissue. Also, in data set [1] (setting [5]), the Blood tissue concentration is reported as 0.05 % Injected Dose (ID)/g of Tissue, the Liver tissue concentration is listed as 0.49 % Injected Dose (ID)/g of Tissue and the Tumor tissue concentration was 18.82 % Injected Dose (ID)/g of Tissue. Also, in data set [1] (after 6 and 24 hours, in words), the “Blood accumulation compared with BA42” value is given as “considerably lower” and the “Liver concentration compared with BA42” value is recorded as “considerably lower”. In addition, in data set [1] (in words), the “Blood accumulation compared with the closest prior art (compound of Eisenhut et al. with NH-Ac)” value is recorded as “considerably less”; the “Retardation in the melanoma tissue” value is recorded as “extended retardation”; the “Retention in the tumor compared with BA40 and BA42” value is “considerably longer”; the “Tumor concentration compared with BA40 and BA42” value was “comparable”. The “Accumulation in the tumor” value in data set [2] is “at least 13 % of the injected dose per gram tissue”. Moreover, the “Lipophilicity compared with the prior art compounds” value in “Lipophilicity” is “higher lipophilicity”. For the same compound, in the data set on thyroid gland, the “Stability … (dehalogenation in vivo)” value is listed as “more stable”.

As to `CCN(CC)CCNC(=O)c1cc(I)c(NC(=O)c2ccccc2)cc1OC` [BA91], in data set [1] (setting [3]), the Blood tissue concentration is reported as 1.06 % Injected Dose (ID)/g of Tissue, the Liver tissue concentration is 12.68 % Injected Dose (ID)/g of Tissue and the Tumor tissue concentration is reported as 9.68 % Injected Dose (ID)/g of Tissue. Also, in data set [1] (setting [4]), the Blood tissue concentration is 0.97 % Injected Dose (ID)/g of Tissue, the Liver tissue concentration is recorded as 3.63 % Injected Dose (ID)/g of Tissue and the Tumor tissue concentration is 16.72 % Injected Dose (ID)/g of Tissue. For the same compound, in data set [1] (setting [5]), the Blood tissue concentration is 0.22 % Injected Dose (ID)/g of Tissue, the Liver tissue concentration was 0.76 % Injected Dose (ID)/g of Tissue and the Tumor tissue concentration is 13.83 % Injected Dose (ID)/g of Tissue. The “Liver concentration compared with BA42” value in data set [1] (after 6 and 24 hours, in words) is on record as “considerably lower”. Besides, in data set [1] (in words), the “Blood accumulation compared with the closest prior art (compound of Eisenhut et al. with NH-Ac)” value was “considerably less”. Further, in the data set on thyroid gland, the “Stability … (dehalogenation in vivo)” value is on record as “more stable”.

Turning to `CCN(CC)CCNC(=O)c1cc(I)c(NC(=O)c2ccc(OC)cc2)cc1OC` [BA95], in data set [1] (setting [3]), the Blood tissue concentration was 1.26 % Injected Dose (ID)/g of Tissue, the Liver tissue concentration was 16.35 % Injected Dose (ID)/g of Tissue and the Tumor tissue concentration is 17.45 % Injected Dose (ID)/g of Tissue. In data set [1] (setting [6]), the Blood tissue concentration was 0.76 % Injected Dose (ID)/g of Tissue, the Liver tissue concentration was 8.54 % Injected Dose (ID)/g of Tissue and the Tumor tissue concentration is on record as 14.83 % Injected Dose (ID)/g of Tissue. Besides, in data set [1] (setting [5]), the Blood tissue concentration was 0.07 % Injected Dose (ID)/g of Tissue, the Liver tissue concentration is 0.75 % Injected Dose (ID)/g of Tissue and the Tumor tissue concentration is recorded as 29.69 % Injected Dose (ID)/g of Tissue. Moreover, in data set [1] (after 6 and 24 hours, in words), the “Liver concentration compared with BA42” value is on record as “considerably lower”. For the same compound, in data set [1] (in words), the “Blood accumulation compared with the closest prior art (compound of Eisenhut et al. with NH-Ac)” value is “considerably less” and the “Retardation in the melanoma tissue” value was “extended retardation”. Besides, the “Stability … (dehalogenation in vivo)” value in the data set on thyroid gland is on record as “more stable”.
